Data on three compounds can be found in patent US12220395B2, “Intermittent endurance capacity improving agent or blood pH elevating agent” (AJINOMOTO CO., INC., priority 2018, dated 2025).

Structures are written as SMILES.

The test system of experiment [1] is C57BL/6J male mice. As to the kind of experiment: increase in mouse plasma pH by oral administration. As to conditions: for blood (plasma) pH increasing effect, time course: 7- to 9-week-old mice, aspartic acid 1 g/kg, blood sampled 30, 60, 120 min after administration, i-STAT, FIGS. 2 and 3.
For experiment [2], the system named is C57BL/6J male mice. As to the kind of experiment: mouse YO-YO test (intermittent endurance capacity, treadmill). In kind it is in vivo. To be noted: 6-week-old mice; oral aqueous solution 1 to 2 g/kg; YO-YO test from 30 min after administration; compared to water (negative control); FIG. 1.
Description: After ingesting a test substance into 6-week-old C57BL/6J male mice, a mouse YO-YO test was conducted to evaluate an intermittent endurance capacity improving effect of the test substance using the intermittent endurance capacity of each individual as an index. As the test substance, 20 kinds of amino acids (or salts thereof) were used.
Preliminary running was performed on the mice one week before the main test. […] Unable to run was judged when the mouse could not keep up with the running speed. […] Grouping was performed such that the number of running sets and body weight of each individual obtained in the preliminary running were about the same for each group.
In the week following the preliminary running, the mice evaluated for the intermittent endurance capacity were orally administered with an aqueous solution containing a test substance in a dose of 1 to 2 g/kg mouse body weight, or water (negative control) at 20 mL/kg mouse body weight. […] From 30 min after the oral administration, the above-mentioned YO-YO test was performed to evaluate the effect of the test substance on the number of runnable sets of each individual. […]

For the compound `O=C([O-])O.[Na+]` [sodium hydrogen carbonate], the “blood (plasma) pH increasing effect, time course” value in experiment [1] is listed as “the pH increasing effect disappeared rapidly thereafter”. Moreover, the “time of peak of the pH increasing effect” value in experiment [1] (plasma pH, mice, FIG. 2) is reported as 0.5 hr.

As to `N[C@@H](Cc1ccc(O)cc1)C(=O)O` [tyrosine], the “increase in the number of runnable sets (intermittent endurance capacity improving effect)” value in experiment [2] is given as “significantly increased the number of runnable sets”. Turning to `N[C@@H](CC(=O)O)C(=O)O` [aspartic acid], the “blood (plasma) pH increasing effect, time course” value in experiment [1] was “affords an effect of increasing blood pH even after 0.5 hr to 2 hr from the administration”. In experiment [2], the “increase in the number of runnable sets (intermittent endurance capacity improving effect)” value is listed as “significantly increased the number of runnable sets”.
